Results published in patent US20040258620A1, “(Ethylene)-( propylene)-triaminepentaacetic acid derivatives, process for their production, and their use for the production of pharmaceutical agents” (priority 2001, published 2004).
One block for each compound: values may come before it.

Experiment: 17O NMR on Gd(TRITA-bz-NO2)
Type: physicochemical
Conditions: for A/ħ / ER / ΔH^x / ΔS* / τR^298: from ^17O NMR data; for kex^298: water exchange rate from ^17O NMR data; for In(1/T1r), reduced longitudinal ^17O relaxation rate / In(1/T2r), reduced transverse ^17O relaxation rate / Δwr, reduced ^17O chemical shift: B = 9.4 Tesla
Source text: The rate of water exchange, Kes, has been measured on Gd(TRITA-bz-NO2) by ^17O NMR. The numerical experimental data (reduced transverse and longitudinal ^17O relaxation rates, reduced chemical shifts) measured on a Gd(TRITA-bz-NO2) solution are shown in Table 6.

- A/ħ: −3.7 10^6 rad s^−1
- ER: 3.85 kcal/mol
- τR^298: 77 ps
Compound: O=C([O-])CN1CCN(CC(=O)[O-])CCN(CC(=O)[O-])CCN(CC(=O)[O-])CC1.[Gd+3] [Gd(DOTA)(H2O)^−, reference compound]
- ΔH^x: 11.9 kcal/mol
- ΔS*: +10.5 Jmol^−1K^−1
- kex^298: 4.1 10^6 s^−1

- In(1/T1r), reduced longitudinal ^17O relaxation rate (T 273.05 K): 11.42
- In(1/T2r), reduced transverse ^17O relaxation rate (T 273.05 K): 13.55
- Δwr, reduced ^17O chemical shift (T 273.05 K): −9.34E+05 Hz
- In(1/T1r), reduced longitudinal ^17O relaxation rate (T 281.75 K): 11.08
- In(1/T2r), reduced transverse ^17O relaxation rate (T 281.75 K): 13.31
- Δwr, reduced ^17O chemical shift (T 281.75 K): −9.23E+05 Hz
- In(1/T1r), reduced longitudinal ^17O relaxation rate (T 292.45 K): 10.60
- In(1/T2r), reduced transverse ^17O relaxation rate (T 292.45 K): 12.96
- Δwr, reduced ^17O chemical shift (T 292.45 K): −9.15E+05 Hz
- In(1/T1r), reduced longitudinal ^17O relaxation rate (T 302.25 K): 10.44
- In(1/T2r), reduced transverse ^17O relaxation rate (T 302.25 K): 12.54
- Δwr, reduced ^17O chemical shift (T 302.25 K): −8.72E+05 Hz
- In(1/T1r), reduced longitudinal ^17O relaxation rate (T 317.25 K): 9.97
- In(1/T2r), reduced transverse ^17O relaxation rate (T 317.25 K): 12.03
- Δwr, reduced ^17O chemical shift (T 317.25 K): −8.28E+05 Hz
- In(1/T1r), reduced longitudinal ^17O relaxation rate (T 330.25 K): 9.58
- In(1/T2r), reduced transverse ^17O relaxation rate (T 330.25 K): 11.56
- Δwr, reduced ^17O chemical shift (T 330.25 K): −7.07E+05 Hz
- In(1/T1r), reduced longitudinal ^17O relaxation rate (T 349.45 K): 9.14
- In(1/T2r), reduced transverse ^17O relaxation rate (T 349.45 K): 11.06
- Δwr, reduced ^17O chemical shift (T 349.45 K): −6.13E+05 Hz
- inner sphere water molecules of the complex (according to the ^17O chemical shifts): 1
- A/ħ: −3.5 ± 0.2 10^6 rad s^−1
- ER: 5.57 ± 0.406 kcal/mol
- τR^298: 223 ± 20 ps
Compound: O=C([O-])CN1CCN(CC(=O)[O-])CCN(CC(=O)[O-])CC(Cc2ccc([N+](=O)[O-])cc2)CN(CC(=O)[O-])CC1.[Gd+3] [Gd(TRITA-bz-NO2)]
- water exchange rate Kex^298: 1.8e+08 s⁻¹
- ΔH^x: 6.41 ± 0.19 kcal/mol
- ΔS*: +3.0 ± 1.0 Jmol^−1K^−1
- water exchange rate, times higher than that measured on Gd(DOTA) (relative to Gd(DOTA)): over 40 times
- kex^298: 180 ± 10 10^6 s^−1
